≈ marks a conversion by molar mass, not a printed value. Like-named read-outs stand apart in the source and are kept apart here. Where a SMILES comes first, the peptide text is derived from it. The star is where a group is joined. βNA = c1ccc2cc(N*)ccc2c1
Experiments:
H. influenzae = assay: microbe, parasite or virus in culture; type: cell-based, Haemophilus influenzae; conditions: for effect of inactivation of HI1462 on susceptibility: H. influenzae NB65044; for MIC: Haemophilus influenzae; for effect of insertional inactivation of acrB on susceptibility: laboratory strain NB65044
Protocol: L-broth or L-agar (Difco) is used for routine growth of Escherichia coli (E. coli). Chocolate agar plates (Remel) are used for routine growth of H. influenzae. Brain heart infusion broth (Remel) supplemented with 10 μg/mL of β-NAD (Fluka) and 10 μg/mL hemin/vitamin K solution (sBHI) (Remel) is used for liquid broth cultivation of H. influenzae. For induction of natural competence in H. influenzae, nutritional downshift is induced using M-IV medium as described previously. See Poje and Redfield, Methods Mol Med, Vol. 71, No., pp. 57-70 (2003). Kanamycin is added to growth media at 50 μg/mL (E. coli) or 5 μg/mL (H. influenzae) as required.
Antibiotic and substrate MICs are determined by broth microdilution using 2-fold dilution in HTM in accordance with the procedures established by the National Committee for Clinical Laboratory Standards (NCCLS). See NCCLS, Approved standard M7-A5, Wayne, Pa. (2003). PDF inhibitors are synthesized at the Novartis Institutes for BioMedical Research, Cambridge, Mass. All remaining antibiotics are obtained from Sigma (St. Louis, Mo.).

E. coli = assay: MIC of LBM415 in E. coli with or without AcrAB-TolC pump function; type: cell-based; conditions: Escherichia coli
Protocol: (§1) For E. coli testing, strain NB27006 is used. This strain is deficient in its native AcrAB pump (described in H Okusu et al. J. Bacteriol. 1996 178: 306-308) and is a suitable host for cloning the H. influenzae acrAB pump genes.
(§2) E. coli: MIC determines are conducted as described above except using Mueller-Hinton test medium.
12). The acrAB containing product is cloned into Topo PCR2.1 (Invitrogen) and transformed into Top10 competent cells (Invitrogen). An insert bearing plasmid is isolated and sequenced to ensure that mutations are not introduced during PCR and cloning. This plasmid is then transformed into E. coli strain NB27006, which lacks its native AcrAB-ToIC pump function.
To further examine this, the H. influenzae acrAB genes are cloned and used to complement, in trans, an AcrAB pump deficiency in E. coli strain NB27006.

[1] = system: H. influenzae NB65044-CDS0011; assay: Potentiation of antibiotic MIC by efflux inhibitor (two-axis 96-well plates); type: cell-based, Haemophilus influenzae; conditions: H. influenzae overexpressing AcrAB; data not shown
Protocol: H. influenzae NB65044-CDS0011 is used for H. influenzae testing. This strain has increased pump expression which is thought to result in more sensitive detection of pump inhibition.
H. influenzae: MIC determinations are conducted in 96 well sterile plates with a range of LBM415 along one axis and range of efflux inhibitor along the other axis. Medium used is HTM (Remel). Inoculum is set to approximately […] bacteria per well using the BBL prompt system.

[2] = system: E. coli strain NB27006 complemented with H. influenzae acrAB genes; assay: Potentiation of antibiotic MIC by efflux inhibitor in E. coli carrying the H. influenzae acrAB genes; type: cell-based, Escherichia coli; conditions: E. coli complemented in trans with H. influenzae acrAB genes
Protocol: as §1, §2
Genes encoding H. influenzae AcrAB pump components are PCR amplified from NB65044 genomic DNA using the primers acrA prom F1 (5′-AATTA[…]-3′) (SEQ ID NO. 11) and acrBR3 […] 5′-[…]-3″) (SEQ ID NO. 12). The acrAB containing product is cloned into Topo PCR2.1 (Invitrogen) and transformed into Top10 competent cells (Invitrogen). An insert bearing plasmid is isolated and sequenced to ensure that mutations are not introduced during PCR and cloning. This plasmid is then transformed into E. coli strain NB27006, which lacks its native AcrAB-ToIC pump function.
Since efflux pumps are impacted by such factors as outer membrane permeability, and E. coli is thought to have a less permeable outer membrane than H. influenzae (possibly accounting for increased impact of efflux on drug resistance), it has reasoned that the detection of H. influenzae AcrAB pump inhibition might be more sensitive in an E. coli background. […] This is interesting in that the native E. coli AcrAB-ToIC pump does extrude tetracycline.

[3] = strain NB65016 (clinical isolate), read-out: MIC
[4] = strain NB65016-CDS0004, knockout acrB
[5] = strain NB65027 (clinical isolate), read-out: MIC
[6] = strain NB65027-CDS0003, knockout HI1462
[7] = strain NB65027-CDS0021, knockout acrB
[8] = strain NB65044 (Rd KW20, parent laboratory strain), read-out: MIC
[9] = strain NB65044-CDS0001 (NB65044 acrB::Km)
[10] = strain NB65044-CDS0020 (Table 1: NB65044 acrB::Km)
[11] = strain NB65051 (clinical isolate), read-out: MIC
[12] = strain NB65051-CDS0002, knockout acrB
[13] = strain NB65051-CDS0022, knockout HI1462
[14] = strain NB65063 (clinical isolate), read-out: MIC
[15] = strain NB65063-CDS0005, knockout acrB
[16] = strain NB65069 (clinical isolate), read-out: MIC
[17] = strain NB65069-CDS0007, knockout acrB
[18] = strain NB65076 (clinical isolate), read-out: MIC
[19] = strain NB65076-CDS0006, knockout acrB

**Q.** Which results are given for `CCCC[C@H](CN(O)C=O)C(=O)N1CCC[C@H]1C(=O)Nc1ccc(F)c[n+]1[O-]` [LBM415]?
**A.** effect of inactivation of HI1462 on susceptibility (H. influenzae): increases susceptibility; MIC (H. influenzae; [3]): 16 µg/mL (≈ 40.4 µM); MIC (H. influenzae; [4]): 0.25 µg/mL (≈ 0.631 µM); MIC (H. influenzae; [5]): 32 µg/mL (≈ 80.7 µM); MIC (H. influenzae; [6]): 0.5 µg/mL (≈ 1.26 µM); MIC (H. influenzae; [7]): 0.5 µg/mL (≈ 1.26 µM); MIC (H. influenzae; [8]): 4 µg/mL (≈ 10.1 µM); MIC (H. influenzae; [9]): 0.25 µg/mL (≈ 0.631 µM); MIC (H. influenzae; [10]): 0.125 µg/mL (≈ 0.315 µM); MIC (H. influenzae; [11]): 32 µg/mL (≈ 80.7 µM); MIC (H. influenzae; [12]): 0.25 µg/mL (≈ 0.631 µM); MIC (H. influenzae; [13]): 0.25 µg/mL (≈ 0.631 µM); MIC (H. influenzae; strain NB65062 (clinical isolate, hyper-susceptible, acrA deletion), read-out: MIC): ≤ 0.25 µg/mL; MIC (H. influenzae; strain NB65062-CDS0037 (NB65062 complemented for acrA deficiency), read-out: MIC): 8 µg/mL (≈ 20.2 µM); MIC (H. influenzae; strain NB65062-CDS0038 (NB65062 complemented for acrA deficiency), read-out: MIC): 8 µg/mL (≈ 20.2 µM); MIC (H. influenzae; [14]): 32 µg/mL (≈ 80.7 µM); MIC (H. influenzae; [15]): 1 µg/mL (≈ 2.52 µM); MIC (H. influenzae; [16]): 16 µg/mL (≈ 40.4 µM); MIC (H. influenzae; [17]): 0.25 µg/mL (≈ 0.631 µM); MIC (H. influenzae; [18]): 16 µg/mL (≈ 40.4 µM); MIC (H. influenzae; [19]): 0.25 µg/mL (≈ 0.631 µM); decrease in susceptibility (H. influenzae; acrR insertionally inactivated in NB65044 (NB65044-CDS0008) versus parent): 2 fold; effect of insertional inactivation of acrB on susceptibility (H. influenzae): significantly increases susceptibility; decrease in susceptibility (H. influenzae; two acrR mutants of NB65044 selected on 8 μg/mL LBM415 versus parent): 8 fold; MIC (E. coli; E. coli strain NB27006 complemented with the H. influenzae acrAB genes): 32 µg/mL; MIC (E. coli; E. coli strains deficient in AcrAB-ToIC pump function, typical value): ~1 µg/mL; MIC (E. coli; E. coli with native AcrAB-ToIC pump, typical value): ≥ 128 µg/mL

**Q.** How did the MIC (H. influenzae; [4]) turn out when `CN(C)[C@@H]1C(O)=C(C(N)=O)C(=O)[C@@]2(O)C(O)=C3C(=O)c4c(O)cccc4[C@@](C)(O)[C@H]3C[C@@H]12` [TET, tetracycline] was run?
**A.** 1 µg/mL (≈ 2.25 µM)

**Q.** And the MIC (H. influenzae; [6])?
**A.** 1 µg/mL (≈ 2.25 µM)

**Q.** And the MIC (H. influenzae; [7])?
**A.** 0.5 µg/mL (≈ 1.13 µM)

**Q.** And the MIC (H. influenzae; [9])?
**A.** 0.5 µg/mL (≈ 1.13 µM)

**Q.** And the MIC (H. influenzae; strain NB65044-CDS0008, knockout acrR)?
**A.** 0.5 µg/mL (≈ 1.13 µM)

**Q.** And the MIC (H. influenzae; strain NB65044-CDS0011 (acrR mutant selected on 8 μg/mL LBM415, stop codon))?
**A.** 1 µg/mL (≈ 2.25 µM)

**Q.** What about the MIC (H. influenzae; strain NB65044-CDS0014 (acrR mutant selected on 8 μg/mL LBM415, L→P)) of the same compound?
**A.** 1 µg/mL (≈ 2.25 µM)

**Q.** What about the MIC (H. influenzae; [10]) of the same compound?
**A.** 1 µg/mL (≈ 2.25 µM)

**Q.** What about the MIC (H. influenzae; [12]) of the same compound?
**A.** 1 µg/mL (≈ 2.25 µM)

**Q.** What about the MIC (H. influenzae; [13]) of the same compound?
**A.** 1 µg/mL (≈ 2.25 µM)

**Q.** What about the MIC (H. influenzae; [15]) of the same compound?
**A.** 1 µg/mL (≈ 2.25 µM)

**Q.** What about the MIC (H. influenzae; [17]) of the same compound?
**A.** 1 µg/mL (≈ 2.25 µM)

**Q.** What about the MIC (H. influenzae; [19]) of the same compound?
**A.** 1 µg/mL (≈ 2.25 µM)

**Q.** How did the “effect of inactivation of HI1462 on susceptibility” value (H. influenzae) turn out when `CC[C@H]1OC(=O)[C@H](C)[C@@H](O[C@H]2C[C@@](C)(OC)[C@@H](O)[C@H](C)O2)[C@H](C)[C@@H](O[C@@H]2O[C@H](C)C[C@H](N(C)C)[C@H]2O)[C@](C)(O)C[C@@H](C)C(=O)[C@H](C)[C@@H](O)[C@]1(C)O` [ERM, erythromycin] was run?
**A.** increases susceptibility

**Q.** What about the MIC (H. influenzae; [3]) of the same compound?
**A.** 16 µg/mL (≈ 21.8 µM)

**Q.** And the MIC (H. influenzae; [4])?
**A.** 0.25 µg/mL (≈ 0.341 µM)

**Q.** What about the MIC (H. influenzae; [5]) of the same compound?
**A.** 16 µg/mL (≈ 21.8 µM)

**Q.** What about the MIC (H. influenzae; [6]) of the same compound?
**A.** 0.125 µg/mL (≈ 0.17 µM)

**Q.** And the MIC (H. influenzae; [7])?
**A.** 0.25 µg/mL (≈ 0.341 µM)

**Q.** What about the MIC (H. influenzae; [8]) of the same compound?
**A.** 4 µg/mL (≈ 5.45 µM)

**Q.** And the MIC (H. influenzae; [9])?
**A.** 0.25 µg/mL (≈ 0.341 µM)

**Q.** What about the MIC (H. influenzae; [10]) of the same compound?
**A.** 0.25 µg/mL (≈ 0.341 µM)

**Q.** What about the MIC (H. influenzae; [11]) of the same compound?
**A.** 16 µg/mL (≈ 21.8 µM)

**Q.** And the MIC (H. influenzae; [12])?
**A.** 0.25 µg/mL (≈ 0.341 µM)

**Q.** And the MIC (H. influenzae; [13])?
**A.** 0.125 µg/mL (≈ 0.17 µM)

**Q.** What about the MIC (H. influenzae; [14]) of the same compound?
**A.** 8 µg/mL (≈ 10.9 µM)

**Q.** What about the MIC (H. influenzae; [15]) of the same compound?
**A.** 0.25 µg/mL (≈ 0.341 µM)

**Q.** And the MIC (H. influenzae; [16])?
**A.** 16 µg/mL (≈ 21.8 µM)

**Q.** What about the MIC (H. influenzae; [17]) of the same compound?
**A.** 0.125 µg/mL (≈ 0.17 µM)

**Q.** What about the MIC (H. influenzae; [18]) of the same compound?
**A.** 16 µg/mL (≈ 21.8 µM)

**Q.** And the MIC (H. influenzae; [19])?
**A.** 0.125 µg/mL (≈ 0.17 µM)

**Q.** And the “effect of insertional inactivation of acrB on susceptibility” value (H. influenzae)?
**A.** increases susceptibility

**Q.** How did the “effect of insertional inactivation of acrB on susceptibility” value (H. influenzae) turn out when `O=C(N[C@H](CO)[C@H](O)c1ccc([N+](=O)[O-])cc1)C(Cl)Cl` [chloramphenicol] was run?
**A.** unaffected

**Q.** What does the source list for `N=C(N)NCCC[C@H](NC(=O)[C@@H](N)Cc1ccccc1)C(=O)Nc1ccc2ccccc2c1` [MC-207,110] (H-Phe-Arg-βNA)?
**A.** potentiation of LBM415 activity [1]: potentiation; potentiation of clindamycin [1]: potentiate; potentiation of tetracycline (pump non-substrate) [1]: no potentiation; potentiation of LBM415 [2]: potentiating activity; potentiation of clindamycin [2]: potentiating activity; potentiation of tetracycline [2]: no potentiation

**Q.** How did the “potentiation of LBM415 activity” value [1] turn out when `COC(=O)[C@H]1[C@H]2C[C@@H]3c4[nH]c5cc(OC)ccc5c4CCN3C[C@H]2C[C@@H](OC(=O)c2cc(OC)c(OC)c(OC)c2)[C@@H]1OC` [Reserpine] was run?
**A.** did not potentiate

**Q.** What about the potentiation of clindamycin [1] of the same compound?
**A.** did not potentiate

Source: patent US20090156645A1, “Method for Increasing the Susceptibility of Peptide Deformylase Inhibitors by Using Efflux Pump Inhibitors” (priority 2004, published 2009)
